# Reference: patent US20210196672A1, “COMPOSITIONS COMPRISING 3'-O-METHYL-5-O-SULFATE EPICATECHIN AND THERAPEUTIC USES OF SUCH COMPOSITIONS” (NESTEC S.A., priority 2016, published 2021)
# System: endothelial nitric oxide synthase
# Experiment: eNOS phosphorylation level in isolated aortic rat rings (western blot)
# Format: cell-based
# Conditions: isolated thoracic aortic rings of male adult Wistar rats, 1 h incubation, relative to the control (DMSO 1%) and chemically similar epicatechins, FIG. 2
# Protocol: Comparative experiments were conducted on the expression of endothelial nitric oxide synthase in isolated aortic rat rings.
# Thoracic aortas were obtained from male adults Wistar rats after euthanasia. Each aorta was carefully dissected and harvested cleaned of excess tissue and cut into three equal segments, approximately 7 mm long. All aortic rings were pre-incubated for 30 min in Krebs solution (20 mM Hepes buffer, pH 7.4, containing 119 mM NaCl, 4.7 mM KCl, 1 mM MgSO4, 0.4 mM NaH2PO4, 0.15 mM Na2HPO4, 5 mM NaHCO3, 1.25 mM CaCl2, 5.5 mM glucose) aerated with 95% 02 and 5% CO2 at 37° C. and then incubated with vehicle (DMSO 1%) or the different metabolites for 1 h. Metabolites were first dissolved in DMSO 1% and tested in a final concentration […]. At the end of the incubation period aortic rings were frozen at −70° C. until the homogenate preparation. Homogenates for western blot and western blot determinations were carried out by the regular procedures and phosphorylation level of endothelial nitric oxide synthase was evaluated.
structure (smiles),measurement,value
COc1cc([C@H]2Oc3cc(O)cc(OS(=O)(=O)O)c3C[C@H]2O)ccc1O [3′-O-methyl-5-O-sulfate epicatechin],eNOS phosphorylation,increased eNOS phosphorylation relative to the control and chemically similar epicatechins
